The target in test [1] is T1, ORL1 receptor (Homo sapiens, UniProt P41146).
T1 construct: expressed in transfected cells; host or cells: CHO (recombinant CHO-ORL1 cells), membranes
Nature of the test: ORL1 receptor binding assay with 3H-nociceptin/orphanin FQ (WGA-SPA beads). To be noted: c=1 μM test substance; 0.5 nM 3H-nociceptin/orphanin FQ; membranes of recombinant CHO-ORL1 cells. In a few lines: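 Radioligand displacement on membranes from recombinant CHO-ORL1 cells, 0.5 nM 3H-nociceptin/orphanin FQ, 20 μg membrane protein per batch in 50 mM Hepes pH 7.4, 10 mM MgCl2, 1 mM EDTA. Incubated 1 h at room temperature with WGA-SPA beads, scintillation read. Reported as Ki (nM) or % inhibition at 1 μM.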

Test [2] deals with T2, human μ-opiate receptor (Homo sapiens, UniProt P35372).
T2 construct: purchased NEN, Zaventem, Belgium RB-HOM; host or cells: CHO-K1 cells (membrane preparation)
T2 sequence (P35372 whole entry): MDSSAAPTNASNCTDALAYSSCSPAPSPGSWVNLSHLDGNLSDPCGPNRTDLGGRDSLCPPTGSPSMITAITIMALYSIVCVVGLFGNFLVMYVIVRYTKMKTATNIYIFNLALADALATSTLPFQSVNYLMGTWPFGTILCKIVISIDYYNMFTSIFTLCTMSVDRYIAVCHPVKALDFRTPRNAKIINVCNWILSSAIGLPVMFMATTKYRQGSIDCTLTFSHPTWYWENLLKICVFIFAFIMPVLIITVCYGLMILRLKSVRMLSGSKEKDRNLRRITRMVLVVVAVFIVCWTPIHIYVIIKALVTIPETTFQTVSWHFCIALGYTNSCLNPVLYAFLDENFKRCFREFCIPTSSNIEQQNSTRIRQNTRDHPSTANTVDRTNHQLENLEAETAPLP
Nature of the test: μ-opiate receptor binding assay with [3H] naloxone (WGA-SPA beads). The conditions noted are these: 1 μmol/l test substance; 1 nmol/l [3H] naloxone; CHO-K1 cell membranes expressing human μ-opiate receptor. In a few lines: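 CHO-K1 membranes expressing human μ-opiate receptor incubated 90 min at room temperature with 1 nmol/l [3H]naloxone and WGA-SPA beads in 50 mmol/l Tris-HCl with 0.05% azide, 0.06% BSA. Non-specific binding with 25 μmol/l naloxone; % inhibition at 1 μmol/l, or IC50 converted to Ki via Cheng-Prusoff.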

T1 sequence (P41146 whole entry): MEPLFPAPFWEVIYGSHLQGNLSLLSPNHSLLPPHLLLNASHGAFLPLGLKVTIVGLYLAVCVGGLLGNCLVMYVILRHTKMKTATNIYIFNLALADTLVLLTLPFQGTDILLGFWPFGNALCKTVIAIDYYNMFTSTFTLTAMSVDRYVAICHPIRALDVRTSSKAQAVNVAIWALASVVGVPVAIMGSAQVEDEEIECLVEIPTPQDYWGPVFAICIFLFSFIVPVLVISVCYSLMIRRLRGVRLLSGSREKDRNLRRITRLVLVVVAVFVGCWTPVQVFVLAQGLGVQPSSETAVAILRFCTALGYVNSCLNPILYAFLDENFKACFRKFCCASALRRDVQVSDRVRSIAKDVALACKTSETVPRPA

`CN(C)C1(c2ccccc2)CCN(C(=O)CCNC(=O)CCc2cn(C)c3ccccc23)CC1` [Example 117, N-(3-(4-(dimethylamino)-4-phenylpiperidin-1-yl)-3-oxopropyl)-3-(1-methyl-1H-indol-3-yl)propanamide]: the inhibition at 1 µM in test [1] worked out at 48%; in test [2], 79%.
Take `CN(C)C1(c2ccccc2)CCN(C(=O)C2CN(C(=O)c3ccc4ccn(C)c4c3)c3ccccc32)CC1` (stereo not drawn) [Example 118, (4-(dimethylamino)-4-phenylpiperidin-1-yl)(1-(1-methyl-1H-indole-6-carbonyl)indolin-3-yl)methanone]: the inhibition at 1 µM in test [1] stood at 46%; in test [2], 97%.
As for `CN(CCN1CCC(c2ccccc2)(N(C)C)CC1)C(=O)c1ccc2ccn(C)c2c1` [Example 119, N-(2-(4-(dimethylamino)-4-phenylpiperidin-1-yl)ethyl)-N,1-dimethyl-1H-indole-6-carboxamide], the inhibition at 1 µM in test [1] was found to be 45%; in test [2], 95%.
In the case of `CN(C)c1ccc2cc(C(=O)NCCC(=O)N3CCC(c4ccccc4)(N(C)C)CC3)[nH]c2c1` [Example 120, 6-(dimethylamino)-N-(3-(4-(dimethylamino)-4-phenylpiperidin-1-yl)-3-oxopropyl)-1H-indole-2-carboxamide], the inhibition at 1 µM in test [1] worked out at 45%; in test [2], 60%.
For `CN(C)C1(c2ccccc2)CCN(C(=O)CCNC(=O)c2cccc3c2ccn3C)CC1` [Example 121, N-(3-(4-(dimethylamino)-4-phenylpiperidin-1-yl)-3-oxopropyl)-1-methyl-1H-indole-4-carboxamide], the inhibition at 1 µM in test [1] was 44%; in test [2], 88%.
In the case of `CC(CC(=O)N1CCCC(C(=O)N2CCC(c3ccccc3)(N(C)C)CC2)C1)c1c[nH]c2ccccc12` (stereo not drawn) [Example 122, 1-(3-(4-(dimethylamino)-4-phenylpiperidine-1-carbonyl)piperidin-1-yl)-3-(1H-indol-3-yl)butan-1-one], the inhibition at 1 µM in test [1] is 43%; in test [2] it was 84%.
The like results for `CN(C)C1(c2ccccc2)CCN(C(=O)C2CCCN(C(=O)CCc3c[nH]c4ccccc34)C2)CC1` (stereo not drawn) [Example 123, 1-(3-(4-(dimethylamino)-4-phenylpiperidine-1-carbonyl)piperidin-1-yl)-3-(1H-indol-3-yl)propan-1-one] were, in that order, 43% and 72%.
In the same order, the values of `CN(C)C1(c2ccccc2)CCN(C(=O)C2CCCN(C(=O)Cc3c[nH]c4cc(F)ccc34)C2)CC1` (stereo not drawn) [Example 124, 1-(3-(4-(dimethylamino)-4-phenylpiperidine-1-carbonyl)piperidin-1-yl)-2-(6-fluoro-1H-indol-3-yl)ethanone] are 43% and 64%.
Consider `CN(C)C1(c2ccccc2)CCN(C(=O)C2CCCN(C(=O)c3ccc4cc[nH]c4c3)C2)CC1` (stereo not drawn) [Example 125, (1-(1H-indole-6-carbonyl)piperidin-3-yl)(4-(dimethylamino)-4-phenylpiperidin-1-yl)methanone], for which the values for the inhibition at 1 µM in test [1] and in test [2] were 42% and 55%, respectively.
Turning to `CN(C(=O)CCc1cn(C)c2ccccc12)C(C(=O)N1CCC(c2cccs2)(N(C)C)CC1)c1ccccc1` (stereo not drawn) [Example 126, N-(2-(4-(dimethylamino)-4-(thiophen-2-yl)piperidin-1-yl)-2-oxo-1-phenylethyl)-N-methyl-3-(1-methyl-1H-indol-3-yl)propanamide], the inhibition at 1 µM in test [1] is 40%; in test [2], 90%.
As to `CN(CCN1CCC(c2ccccc2)(N(C)C)CC1)C(=O)C1CCCc2c1[nH]c1ccc(Cl)cc21` (stereo not drawn) [Example 127, 6-chloro-N-(2-(4-(dimethylamino)-4-phenylpiperidin-1-yl)ethyl)-N-methyl-2,3,4,9-tetrahydro-1H-carbazole-1-carboxamide], the “% Inhibition (ORL1) at 1 μM” value in test [1] came out at 39%. The compound also gave an inhibition at 1 µM in test [2] of 68%.
On to `CN(C)C1(c2ccccc2)CCN(C(=O)C2CCCN(C(=O)c3ccc4ccn(C)c4c3)C2)CC1` (stereo not drawn) [Example 128, (4-(dimethylamino)-4-phenylpiperidin-1-yl)(1-(1-methyl-1H-indole-6-carbonyl)piperidin-3-yl) methanone], for which the values for the inhibition at 1 µM in test [1] and in test [2] were 39% and 56%, respectively.
Regarding `COc1ccc2[nH]c(C(=O)NCCC(=O)N3CCC(c4ccccc4)(N(C)C)CC3)cc2c1` [Example 129, N-(3-(4-(dimethylamino)-4-phenylpiperidin-1-yl)-3-oxopropyl)-5-methoxy-1H-indole-2-carboxamide], the inhibition at 1 µM in test [1] was 37%; in test [2], 73%.
On to `CN(C)C1(c2ccccc2)CCN(C(=O)C2CCCN(C(=O)c3cccc4c3ccn4C)C2)CC1` (stereo not drawn) [Example 130, (4-(dimethylamino)-4-phenylpiperidin-1-yl)(1-(1-methyl-1H-indole-4-carbonyl)piperidin-3-yl) methanone], for which the inhibition at 1 µM in test [1] worked out at 36%; in test [2] it was 51%.
Regarding `CN(C)C1(c2ccccc2)CCN(C(=O)C2CCCN(C(=O)c3c[nH]c4ccccc34)C2)CC1` (stereo not drawn) [Example 131, (1-(1H-indole-3-carbonyl)piperidin-3-yl)(4-(dimethylamino)-4-phenylpiperidin-1-yl)methanone], the inhibition at 1 µM in test [1] came out at 34%; in test [2], 43%.
Take `CC(C)C(C(=O)N1CCC(c2ccccc2)(N(C)C)CC1)N(C)C(=O)CCc1cn(C)c2ccccc12` (stereo not drawn) [Example 132, N-(1-(4-(dimethylamino)-4-phenylpiperidin-1-yl)-3-methyl-1-oxobutan-2-yl)-N-methyl-3-(1-methyl-1H-indol-3-yl)propanamide]: the inhibition at 1 µM in test [1] turned out to be 34%; in test [2], 63%.
In the same order, the values of `CN(C)C1(c2ccccc2)CCN(C(=O)C2CCCN(C(=O)CCc3cn(C)c4ccccc34)C2)CC1` (stereo not drawn) [Example 133, 1-(3-(4-(dimethylamino)-4-phenylpiperidine-1-carbonyl)piperidin-1-yl)-3-(1-methyl-1H-indol-3-yl)propan-1-one] are 32% and 71%.
Regarding `CN(C(=O)C1CCCc2c1[nH]c1ccc(Cl)cc21)C(C(=O)N1CCC(c2cccs2)(N(C)C)CC1)c1ccccc1` (stereo not drawn) [Example 134, 6-chloro-N-(2-(4-(dimethylamino)-4-(thiophen-2-yl)piperidin-1-yl)-2-oxo-1-phenylethyl)-N-methyl-2,3,4,9-tetrahydro-1H-carbazole-1-carboxamide], the inhibition at 1 µM in test [1] was 29%; in test [2] it was 34%.
As for `CN(C)C1(c2cccs2)CCN(C(=O)CNC(=O)c2cccc3c2ccn3C)CC1` [Example 135, N-(2-(4-(dimethylamino)-4-(thiophen-2-yl)piperidin-1-yl)-2-oxoethyl)-1-methyl-1H-indole-4-carboxamide], the inhibition at 1 µM in test [1] was 27%; in test [2] it was 61%.
Consider `CN(C)c1ccc2cc(C(=O)N3CCCC(C(=O)N4CCC(c5ccccc5)(N(C)C)CC4)C3)[nH]c2c1` (stereo not drawn) [Example 136, (6-(dimethylamino)-1H-indol-2-yl)(3-(4-(dimethylamino)-4-phenylpiperidine-1-carbonyl)piperidin-1-yl)methanone], for which the inhibition at 1 µM in test [1] is 24%; in test [2] it was 46%.
As for `CCCCC1(N(C)C)CCN(CCN(C)Cc2c[nH]c3ccccc23)CC1` [Example 138, 1-(2-(((1H-indol-3-yl)methyl)(methyl)amino)ethyl)-4-butyl-N,N-dimethylpiperidin-4-amine], the inhibition at 1 µM in test [1] came out at 12%; in test [2], 81%.
For `CN(C)C1(c2ccccc2)CCN(C(=O)CCNCc2c[nH]c3ccccc23)CC1` [Example 139, 3-((1H-indol-3-yl)methylamino)-1-(4-(dimethylamino)-4-phenylpiperidin-1-yl)propan-1-one], the inhibition at 1 µM was determined as 74% in test [1] and 90% in test [2].
Consider `CN(CCN1CCC(c2ccccc2)(N2CCCC2)CC1)Cc1ccc2[nH]ccc2c1` [Example 140, N-((1H-indol-5-yl)methyl)-N-methyl-2-(4-phenyl-4-(pyrrolidin-1-yl)piperidin-1-yl)ethanamine], for which the values for the inhibition at 1 µM in test [1] and in test [2] were 17% and 54%, respectively.
As for `CN(C)C1(c2ccccc2)CCN(C(=O)CCNCc2ccc3[nH]ccc3c2)CC1` [Example 142, 3-((1H-indol-5-yl)methylamino)-1-(4-(dimethylamino)-4-phenylpiperidin-1-yl)propan-1-one], the results for the inhibition at 1 µM in test [1] and in test [2] were 40% and 78%, respectively.
For `CN(CCN1CCC(c2ccccc2)(N2CCCC2)CC1)Cc1ccc2cc[nH]c2c1` [Example 143, N-((1H-indol-6-yl)methyl)-N-methyl-2-(4-phenyl-4-(pyrrolidin-1-yl)piperidin-1-yl)ethanamine], the inhibition at 1 µM in test [1] amounted to 13%; in test [2], 71%.
With `CCCCC1(N(C)C)CCN(CCN(C)Cc2ccc3cc[nH]c3c2)CC1` [Example 144, 1-(2-(((1H-indol-6-yl)methyl)(methy)amino)ethyl)-4-butyl-N,N-dimethylpiperidin-4-amine], in test [1], the “% Inhibition (ORL1) at 1 μM” value was determined as 39%. Besides, the “% Inhibition (μ) at 1 μM” value in test [2] was determined as 90%.
With `CN(C)C1(c2ccccc2)CCN(C(=O)CCNCc2ccc3cc[nH]c3c2)CC1` [Example 145, 3-((1H-indol-6-yl)methylamino)-1-(4-(dimethylamino)-4-phenylpiperidin-1-yl)propan-1-one], the inhibition at 1 µM in test [1] amounted to 45%; in test [2] it was 80%.

For orientation: inhibition means how much of the control response was suppressed.

The values above are taken from US9206156B2, “Substituted indole derivatives” (GRÜNENTHAL GMBH, priority 2008, dated 2015).
